For data set [1], the system named is L. infantum chagasi promastigotes. The data set is described as follows: microbe, parasite or virus in culture. The note with it: Leishmania infantum, 48 h, read-out: IC50 (CI 95%): concentration of compound that causes 50% of L. infantum chagasi promastigotes mortality.
Method: (§1) Subsequently, 0.5 mg/mL of 3-(4,5-dimethylthiazol-2-yl)-2,5-diphenyltetrazolium bromide (MTT, Sigma-Aldrich®, St. Louis, MO, USA) was added and the incubations continued for an additional 4 h at 26 °C. The purple formazan product that was formed by the action of mitochondrial enzymes in living cells was solubilized by the addition of acidic isopropanol, and the absorbance at 570 nm was measured using a microplate reader spectrophotometer EZ Read 400 from Biochrom. […] The 50% inhibitory concentration (IC50) value for each compound was determined. The survival rate was calculated according to the formula: OD in treated group/OD of untreated group x 100. The 50% inhibitory concentration (IC50) value for each compound was determined by nonlinear regression analysis using GraphPad Prism 5.03 software.
A short description of data set [2]: in vitro. The note with it: mouse.
Data set [3] relates to L. amazonensis promastigotes. Kind of data set: microbe, parasite or virus in culture. To be noted: Leishmania amazonensis, 48 h.
Method: as §1
The subject of data set [4] is Macrophages RAW 264.7 cell line.
For data set [5], the system named is L. amazonensis promastigotes. Kind of data set: Cell membrane integrity (propidium iodide, flow cytometry). The class given is cell-based, Leishmania (L.) amazonensis. To be noted: 1.8 µM (IC50), 48 h. Background: Flow cytometry measures light scatter and fluorescence of single cells or particles in a stream.
Method: After 48 h at 26°C, the parasites were harvested and washed twice with PBS, resuspended and incubated with 100 μL of propidium iodide (PI – Sigma–Aldrich) 50 μg/mL at 26°C for 15 min. Following, each sample was completed with 400 μL of PBS and a total of 20,000 events were acquired and analyzed on BD FACScalibur flow cytometer and CellQuest Pro software. PI fluorescence intensity was quantified as the percentage of the fluorescence compared with untreated promastigotes ([30]). Results were obtained from two independent experiments performed in triplicate.
Data set [6] relates to human erythrocytes. On the procedure: Triton X-100 1% was used as positive control. The hemolytic assay was performed according to the procedure used by ([13]). […] The microplate was incubated at 37°C under agitation (90 rpm) for 60 min. Then, the suspension was centrifuged at 3,000 rpm for 5 min, and the absorbance of the supernatant was measured at 540 nm using a spectrophotometer EZ Read 400 from Biochrom. Triton X-100 1% and PBS were used as positive and negative control, respectively. […] The selectivity index (SI) (CC50 or RBC50/IC50 against L. amazonensis) were determined for each compound.

Data set [7] deals with L. amazonensis promastigotes. To be noted: 100 µM screening concentration, 48 h.
Method: as §1
For data set [8], the system named is L. amazonensis promastigotes. The data set is described as follows: Mitochondrial membrane potential (rhodamine 123, flow cytometry). The class given is cell-based, Leishmania (L.) amazonensis. To be noted: IS 2-fold IC50, 6 h; amphotericin B 0.4 µM; hydrogen peroxide 2 mM. An excerpt:
A total of 30,000 events were acquired in the region that corresponded to the parasites. Histograms were build using the CellQuest Pro software (Joseph Trotter, Scripps Research Institute, La Jolla, CA, USA).

Data set [9] relates to L. amazonensis amastigotes in RAW 264.7 macrophages. Kind of data set: Intramacrophage anti-amastigote activity. To be noted: Leishmania amazonensis, RAW264.7, 48 h, read-out: IC50 (CI 95%): concentration of compound that causes 50% of L. amazonensis amastigotes mortality. The class given is cell-based, Leishmania (L.) amazonensis. On the procedure:
The anti-amastigote assay was performed as previously described ([13]). Macrophages RAW 264.7 cell line (ATCC) were cultured in DMEM plus 10% fetal bovine serum (FBS), penicillin (100 U/mL) and streptomycin (100 µg/mL) until reaching 90% confluence, when were distributed into 96-well microplates at a concentration of 2 x 10^5 cells/well in the presence of DMEM. […] The leishmanicidal activity of macrophages was assessed by determining the number of viable parasites (4 replicates) using a hemocytometer.

Data set [10] relates to Macrophages RAW 264.7 cell line. The note with it: read-out: CC50 towards macrophages (previous study); cited from earlier work.
Data set [11] concerns human erythrocytes. The note with it: cited from earlier work.
Data set [12] has as its system L. amazonensis promastigotes. Also on record: method as in PMID 30077823. The note with it: read-out: IC50 for L. amazonensis promastigotes (previous study); cited from earlier work.
Data set [13] deals with L. infantum chagasi promastigotes. To be noted: read-out: IC50 (CI 95%): concentration of compound that causes 50% of L. infantum chagasi promastigotes mortality, 48 h, MTT.
Method: as §1

Like-named read-outs stand apart in the source and are kept apart here.

By viability is commonly meant a per cent measure of how many cells are alive, often set against a control. For orientation: mortality means the percentage killed. In the case of `CCCCCCCCCCCCCCCCn1c(C)c(C)[n+](C)c1C.[Cl-]` [C16M4ImCl, 1-hexadecyl-2,3,4,5-tetramethylimidazolium chloride], in data set [1], the IC50 came to 14.9 µM. Moreover, in data set [2], the CC50 came out at 17.8 µM and the viability turned out to be 90%. For the same molecule, the IC50 in data set [3] (read-out: IC50 (CI 95%): concentration of compound that causes 50% of L. amazonensis promastigotes mortality) stood at 1.8 µM. Further, in [3] (read-out: mortality of L. amazonensis promastigotes), the mortality at 5 µM was determined as 95%. For the same molecule, in [4], the “SI: selectivity index, ratio of CC50 for macrophage/IC50 for L. amazonensis amastigotes” value stood at 89 and the “SI: selectivity index, ratio of CC50 for macrophage/IC50 for L. amazonensis promastigotes” value is reported as 10. Also, in [5], the “L. amazonensis integrity (panoptic stain)” value is reported as “total lysis of the parasites”. Also, in [6], the “SI: selectivity index, ratio of CC50 for RBC hemolysis/IC50 for L. amazonensis amastigotes” value is given as 78 and the “SI: selectivity index, ratio of CC50 for RBC hemolysis/IC50 for L. amazonensis promastigotes” value is recorded as 8.7. Further, the “RBC50 (CI 95%): concentration of compound that causes 50% of red blood cell hemolysis” value in data set [6] (human red blood cells, 60 min, 37°C) is listed as 15.6 (14.5-16.8) µM. The “L. amazonensis mortality in the screening test” value in data set [7] came out at 100%. Further, in [8], the “mitochondrial membrane potential (ΔΨm) alteration” value is listed as “significant ΔΨm depolarization”. Further, in data set [9], the IC50 came to 0.2 µM.
For the molecule `CCCCCCCCCCCCCCCCn1cc[n+](C)c1.CS(=O)(=O)[O-]` [C16MImMeS, 1-hexadecyl-3-methylimidazolium methanesulfonate], the CC50 in data set [10] was 11.5 µM. For the same molecule, the “RBC50 erythrocytes (previous study)” value in data set [11] is 36.9 µM. Further, the IC50 in data set [12] is 0.75 µM; in [13], 10.8 µM.
